The data set is described as follows: photoluminescence quantum yield (fraction); solvent given as SMILES.

Each structure is given as a SMILES string.

Here are results for 18 compounds from the Deep4Chem optical property database.

Take `Cc1nc2c(c[n+]1C)CN1C(=O)N([C@H]3O[C@@H](CO)[C@H](O)[C@@H]3O)C=CC1=N2`: the photoluminescence quantum yield by setting is: (in CC#N) 0.99; (in CC(C)=O) 0.94; (in CCCCO) 0.12; (in CCCO) 0.11; (in CCO) 0.14; (in CO) 0.14. The same compound gave a photoluminescence quantum yield (in O) of 0.38, a photoluminescence quantum yield (in [2H]OC) of 0.15, a photoluminescence quantum yield (in [2H]OCC) of 0.14 and a photoluminescence quantum yield (in [2H]O[2H]) of 0.42.
Regarding `CN1/C(=C/C=C(/C=C/c2sc3ccccc3[n+]2C)c2cc(F)cc(F)c2)Sc2ccccc21`, the photoluminescence quantum yield (in CCO) turned out to be 0.1, the photoluminescence quantum yield (in CO) is 0.08 and the photoluminescence quantum yield (in CS(C)=O) is 0.18.
For `COC(=O)CNC(=O)CCNc1cccc2ccccc12`, the photoluminescence quantum yield (in CCO) was determined as 0.55.
On to `C(=C\c1nc2c(c(N3CCOCC3)n1)CCCC2)/c1ccccc1`, for which, where the note is “in ClCCl”, the photoluminescence quantum yield was determined as 0.023.
Consider `CC(=O)n1cc(/C=C/c2ccc([N+](=O)[O-])cc2)c2ccccc21`, for which the photoluminescence quantum yield is, setting by setting: (in CC#N) 0.045; (in CCCCCCC) 0.008; (in CO) 0.002; (in O) 0.003.
Take `CC[N+](CC)=c1ccc2c(C(F)(F)F)c3oc4cc(N)ccc4c3oc-2c1`: the photoluminescence quantum yield reads like this: (in CCO) 0.064; (in ClCCl) 0.157; (in O) 0.014.
Under “in ClCCl”, `CCOC(=O)COc1ccc(/C=C/C2=C3C(C)=CC(/C=C/c4ccc(OCC(=O)OCC)cc4)=[N+]3[B-](F)(F)n3c2c2ccccc2c3-c2[nH]c(C)cc2C)cc1` had a photoluminescence quantum yield of 0.01.
`CC1=CC(C)=[N+]2C1=C(C1=C(C)C3=C(C)c4c(C)cc(C)n4[B-](F)(F)[N+]3=C1C)c1c(C)cc(C)n1[B-]2(F)F` registered a photoluminescence quantum yield (in ClC(Cl)Cl) of 0.03.
The compound `Cc1cc(C)c(B(c2ccc(-n3c4ccccc4c4ccccc43)cc2)c2c(C)cc(C)cc2C)c(C)c1` gave a photoluminescence quantum yield (in Cc1ccccc1) of 0.75.
Turning to `CCCCCCOc1ccc(N(c2ccc(OCCCCCC)cc2)c2ccc(-c3sc(-c4ccc(N(c5ccc(OCCCCCC)cc5)c5ccc(OCCCCCC)cc5)cc4)c4nc(CC)c(CC)nc34)cc2)cc1`, the photoluminescence quantum yield was found to be 0.0205 (in CN(C)C=O) and 0.0225 (in ClC(Cl)Cl).
With `CN1C(C(=O)Nc2ccccn2)=C(O)c2sccc2S1(=O)=O`, the photoluminescence quantum yield reads like this: (in C1COCCO1) 0.0191; (in CC#N) 0.00752; (in CCCCO) 0.0169; (in CCCO) 0.0108; (in CCO) 0.00738; (in CCOC(C)=O) 0.0275. Also, the photoluminescence quantum yield (in CO) came to 0.00499.
Consider `CN(C)c1ccc(C2=Nc3sc4c(F)c(F)c(F)c(F)c4[n+]3[B-](F)(F)O2)cc1`, for which the photoluminescence quantum yield was 0.47 (in C1CCOC1), 0.02 (in CC#N), 0.65 (in Cc1ccccc1) and 0.66 (in ClCCl).
As to `CCCCC1(c2ccccc2)Nc2c(-c3ccc(N(C)C)cc3)ccc(-c3ccc(N(C)C)cc3)c2N=C1c1ccccc1` (stereo not given), where the note is “in ClC(Cl)Cl”, the photoluminescence quantum yield worked out at 0.16.
`CCN1C(=CC2=C([O-])C(=Cc3sc4ccccc4[n+]3CC)C2=O)Sc2ccccc21`: under “in CC(C)O”, the photoluminescence quantum yield came out at 0.13.
As for `O=c1oc2ccc(Br)cc2cc1-c1cc2cc(Br)ccc2o1`, the photoluminescence quantum yield (in CS(C)=O) came to 0.2.
As to `CN(c1ccccc1)c1ccc(/C=C/c2ccccc2)cc1`, the photoluminescence quantum yield is, setting by setting: (in CC#N) 0.31; (in CCCCCC) 0.64.
For the setting “in ClCCl”, `Cc1cc(C)c(C2=C3C=C(/C=C/C(=O)OC(C)(C)C)C=[N+]3[B-](F)(F)n3cccc32)c(C)c1` gave a photoluminescence quantum yield of 0.3.
On to `c1ccc2sc(-c3ccc(-c4nnc(-c5ccc(-c6nnc(-c7ccc(-c8cc9ccccc9s8)s7)o6)cc5)o4)s3)cc2c1`, for which the photoluminescence quantum yield (in ClC(Cl)Cl) was determined as 0.61.
